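Interpolation was linear, between the two tested concentrations surrounding the appropriate level; five concentrations were tested over 48 hours in 96-well plates. TGI is the concentration that stops growth completely.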
Tests used:
Experiment in all cases: growth of human tumour cells (NCI), 48 h
[1] = test system: MDA-MB-435
[2] = test system: SK-MEL-2 melanoma
[3] = test system: MCF7 breast
[4] = test system: CAKI-1 renal
[5] = test system: SR leukemia
[6] = test system: A498 renal
[7] = test system: HCC-2998 colon
[8] = test system: SK-MEL-28 melanoma
[9] = test system: SNB-75 CNS
[10] = test system: SF-295 CNS
[11] = test system: SK-MEL-5 melanoma
[12] = test system: HS 578T breast
[13] = test system: UACC-62 melanoma
[14] = test system: HT29 colon
[15] = test system: MALME-3M melanoma
[16] = test system: RXF 393 renal
[17] = test system: EKVX NSCLC
[18] = test system: NCI-H460 lung
[19] = test system: SW-620 colon
[20] = test system: OVCAR-4 ovarian

What does the source list for `C/C(=N/NC(=O)c1ccncc1)C(F)(F)F`?
TGI [1]: > 100 µM; TGI [2]: > 100 µM; TGI [3]: > 100 µM; TGI [4]: > 100 µM; TGI [5]: > 100 µM; TGI [6]: > 100 µM; TGI [7]: > 100 µM; TGI [8]: > 100 µM; TGI [9]: > 100 µM; TGI [10]: > 100 µM; TGI [11]: > 100 µM; TGI [12]: > 100 µM; TGI [13]: > 100 µM; TGI [14]: > 100 µM; TGI [15]: > 100 µM; TGI [16]: > 100 µM

For `CC(=O)CCC#Cc1ccccc1C(=O)C(C)=[N+]=[N-]`, which TGI [2] is on record?
The TGI was > 100 µM.

And the TGI [6]?
The TGI was > 100 µM.

And the TGI [17]?
The TGI was > 100 µM.

And the TGI [7]?
The TGI was > 100 µM.

And the TGI [8]?
The TGI was > 100 µM.

And the TGI [9]?
Its TGI is 69.2 µM.

And the TGI [18]?
The TGI was > 100 µM.

What about the TGI [10] of the same molecule?
Its TGI is > 100 µM.

And the TGI [11]?
The TGI was 33.1 µM.

What about the TGI [13] of the same molecule?
The TGI was 38.7 µM.

What about the TGI [14] of the same molecule?
Its TGI is > 100 µM.

What about the TGI [15] of the same molecule?
The TGI was 84.1 µM.

And the TGI [19]?
Its TGI is > 100 µM.

What about the TGI [16] of the same molecule?
Its TGI is 97.5 µM.

What about the TGI [20] of the same molecule?
The TGI was > 100 µM.

For `COC(=O)/C=C1\SC2(OC1=Nc1ccccc1)C1CC3CC(C1)CC2C3` (stereo unspecified), which TGI [1] is on record?
The TGI was > 100 µM.

And the TGI [2]?
The TGI was > 100 µM.

And the TGI [3]?
The TGI was > 100 µM.

And the TGI [4]?
Its TGI is > 100 µM.

And the TGI [5]?
Its TGI is > 100 µM.

What about the TGI [6] of the same molecule?
Its TGI is > 100 µM.

And the TGI [17]?
The TGI was > 100 µM.

What about the TGI [8] of the same molecule?
The TGI was > 100 µM.

What about the TGI [9] of the same molecule?
The TGI was > 100 µM.

What about the TGI [18] of the same molecule?
The TGI was > 100 µM.

What about the TGI [10] of the same molecule?
The TGI was > 100 µM.

What about the TGI [11] of the same molecule?
The TGI was > 100 µM.

What about the TGI [12] of the same molecule?
The TGI was > 100 µM.

And the TGI [13]?
The TGI was > 100 µM.

And the TGI [14]?
The TGI was > 100 µM.

And the TGI [19]?
The TGI was > 100 µM.

What about the TGI [16] of the same molecule?
The TGI was > 100 µM.

And the TGI [20]?
Its TGI is > 100 µM.

What does the source list for `CN1C2CCC1/C(=C/c1cccc3c1OCO3)C(=O)/C2=C\c1cccc2c1OCO2`?
TGI [2]: > 100 µM; TGI [5]: > 100 µM; TGI [17]: > 100 µM; TGI [7]: > 100 µM; TGI [8]: > 100 µM; TGI [9]: 49.7 µM; TGI [18]: > 100 µM; TGI [10]: 84.6 µM; TGI [11]: > 100 µM; TGI [13]: 91.4 µM; TGI [14]: > 100 µM; TGI [15]: > 100 µM; TGI [19]: > 100 µM; TGI [16]: 68 µM

With `CC(C)(C)[Si](C)(C)OCC1OC(n2cnc3c(N)ncnc32)C2OC(=S)OC12` (stereo unspecified) as the molecule, how does the TGI [1] read?
The TGI was 48.3 µM.

What about the TGI [2] of the same molecule?
The TGI was 74.7 µM.

And the TGI [3]?
The TGI was 93.4 µM.

And the TGI [4]?
The TGI was > 100 µM.

And the TGI [5]?
Its TGI is > 100 µM.

What about the TGI [6] of the same molecule?
The TGI was > 100 µM.

What about the TGI [8] of the same molecule?
The TGI was > 100 µM.

What about the TGI [9] of the same molecule?
Its TGI is > 100 µM.

What about the TGI [18] of the same molecule?
Its TGI is > 100 µM.

And the TGI [10]?
Its TGI is > 100 µM.

And the TGI [11]?
The TGI was 36.1 µM.

And the TGI [12]?
The TGI was > 100 µM.

What about the TGI [13] of the same molecule?
The TGI was 77.8 µM.

What about the TGI [14] of the same molecule?
Its TGI is > 100 µM.

What about the TGI [15] of the same molecule?
Its TGI is 98.3 µM.

What about the TGI [19] of the same molecule?
The TGI was > 100 µM.

What about the TGI [16] of the same molecule?
The TGI was > 100 µM.

What about the TGI [20] of the same molecule?
Its TGI is > 100 µM.

Source: PubChem BioAssay (NCI)
